“Also recorded” adds a separate entry of the source.
What was measured:
[1] = system: TNBS-induced experimental colitis; test: TNBS-induced colitis: body weight, survival rates, overall effect; format: in vivo, mice; details: for body weight of mice / therapeutic effects on the TNBS-induced UC (overall): TNBS colitis mice; for body weight of mice: once daily 5 days, equivalent to 100 mg kg^−1 5-ASA; for therapeutic effects on the TNBS-induced UC (overall): Ols-DB as enema, others i.g.; for ameliorative effects on TNBS-induced colitis (overall), compared with positive control: vs positive control, oral administration
Method: Colitis was induced according to the previous study.[18,19] Briefly, after 12 h of fasting, mice were anesthetized with intraperitoneal pentobarbital sodium (35 mg kg^-1) before the induction of colitis. 0.1 mL of 50% (v/v) ethanol contained 2.5% (v/v) TNBS was instilled into the colon 3.5-4 cm from the anus by a gavage needle. The mice were kept in a head-down position for 30 s to prevent leakage of the intracolonic instillation. Mice in the control group received normal saline instead of TNBS solution, a physical mixture of 5-ASA and sodium butyrate was used as the positive control. […] The treatments were given once daily for 5 continuous days starting 24 hours after the induction of colitis. After the induction of colitis, the body weight of each mice was recorded daily, and the curves of weight changes for each group were drawn to evaluate the TNBS-induced colitis. Meanwhile, the death of mice in each group was recorded daily and the final survival rates of mice were calculated.

[2] = system: MPO activity in colonic tissues; test: TNBS-induced colitis: MPO activity in colonic tissues; format: in vivo, mice; details: for MPO activity in colonic tissues: vs TNBS group, p < 0.01; for MPO activity, compared with positive control: vs positive control
Method: Colitis was induced according to the previous study.[18,19] Briefly, after 12 h of fasting, mice were anesthetized with intraperitoneal pentobarbital sodium (35 mg kg^-1) before the induction of colitis. 0.1 mL of 50% (v/v) ethanol contained 2.5% (v/v) TNBS was instilled into the colon 3.5-4 cm from the anus by a gavage needle. The mice were kept in a head-down position for 30 s to prevent leakage of the intracolonic instillation. Mice in the control group received normal saline instead of TNBS solution, a physical mixture of 5-ASA and sodium butyrate was used as the positive control. […] The treatments were given once daily for 5 continuous days starting 24 hours after the induction of colitis. […] Samples were freeze-thawed three times, after which sonication was repeated. Homogenates were then centrifuged at 13 000 rpm for 30 min and MPO was extracted from the resulting supernatant.[25] MPO activity was measured by the assay kit according to its provider's instructions.

| Compound | body weight of mice [1] | therapeutic effects on the TNBS-induced UC (overall) [1] | MPO activity in colonic tissues [2] | MPO activity, compared with positive control [2] | ameliorative effects on TNBS-induced colitis (overall), compared with positive control [1] |
| --- | --- | --- | --- | --- | --- |
| CCCC(=O)Oc1ccc(N=Nc2ccc(OC(=O)CCC)c(C(=O)O)c2)cc1C(=O)O [Ols-DB, 3,3′-azobis(6-hydroxybenzoicacid)dibutyrate] | slight weight loss at first and gained gradually from the 2nd day | just as effective as 5-ASDB and Ols-DBP; also recorded: certain therapeutic effects | significantly decreased | significantly better than the positive control |  |
| CCCC(=O)OCC(COC(=O)CCC)OC(=O)c1cc(N)ccc1O [5-ASDB, 2-(1,3-dibutyroxypropyl)-5-aminosalicylate] | slight weight loss at first and gained gradually from the 2nd day | certain therapeutic effects | significantly decreased | significantly better than the positive control | significantly greater than the positive control |
| CCCC(=O)OCC(COC(=O)CCC)OC(=O)c1cc(N=Nc2ccc(O)c(C(=O)OC(COC(=O)CCC)COC(=O)CCC)c2)ccc1O [Ols-DBP] | slight weight loss at first and gained gradually from the 2nd day | certain therapeutic effects | significantly decreased | significantly better than the positive control | significantly greater than the positive control |

Reference: paper PMC9077470 (RSC Advances, 2018)
